# Assay results: patent US6028195A, “Piperazine derivatives and process for the preparation thereof” (Samjin Pharmaceutical Co., Ltd., priority 1996, dated 2000)
# Like-named read-outs stand apart in the source and are kept apart here.
# Experiments:
# Assay type in all cases: cell-based
# HCT-15 (human colon) = assay: SRB assay, in vitro antitumor effect against HCT-15; conditions: Homo sapiens
# Method: (§1) In vitro antitumor effect against human tumor cell lines.
# (§2) b. 5×10^3 ~2×10^4 cells were added into each well of 96-well plate and cultured in 5% CO2 incubator, at 37° C., for 24 hours.
# (§3) c. Each sample drug was dissolved in a little DMSO and diluted with the used medium to a prescribed concentration for experiments, wherein the final concentration of DMSO was controlled below 0.5%.
# (§4) d. Medium of each well cultured for 24 hours as above b. was removed by aspiration. Each 200 μl of drug samples prepared in c. was added into each well and the wells were cultured for 48 hours. Tz(time zero) plates were collected at the point of time drugs were added.
# (§5) e. According to the SRB assay method, cell fixing with TCA, staining with 0.4% SRB solution, washing with 1% acetic acid and elution of dye with 10 mM Tris solution were carried out on Tz plates and culture-ended plates, and then, OD values were measured at 520 nm.
# (§6) a. Time zero(Tz) value was determined with measuring the SRB protein value at the point of time drugs were added.
# (§7) b. Control value(C) was determined with the OD value of an well untreated with drug.
# (§8) c. Drug-treated test value(T) was determined with the OD value of drug-treated well.
# (§9) d. Effects of drugs were estimated with growth stimulation, net growth inhibition, net killing etc. calculated from Tz, C and T.
# (§10) e. If T≥Tz, cellular response function was calculated by 100×(T-Tz)/(C-Tz), and if T<Tz, by 100×(T-Tz)/Tz.
# [1] = system: A549 (human non-small lung cell); assay: SRB assay, in vitro antitumor effect against A549; conditions: Homo sapiens; A549, 48 hours; read-out: ED50 (the source's name)
# Method: as §1, §2, §3, §4, §5, §6, §7, §8, §9, §10
# XF 498 (human CNS) = assay: SRB assay, in vitro antitumor effect against XF 498; conditions: Homo sapiens, XF498; XF-498, 48 hours; read-out: ED50 (the source's name)
# Method: as §1, §2, §3, §4, §5, §6, §7, §8, §9, §10
# SKMEL-2 (human melanoma) = assay: SRB assay, in vitro antitumor effect against SKMEL-2; conditions: Homo sapiens; SK-MEL-2, 48 hours; read-out: ED50 (the source's name)
# Method: as §1, §2, §3, §4, §5, §6, §7, §8, §9, §10
# SKOV-3 (human ovarian) = assay: SRB assay, in vitro antitumor effect against SKOV-3; conditions: Homo sapiens; SK-OV-3, 48 hours; read-out: ED50 (the source's name)
# Method: as §1, §2, §3, §4, §5, §6, §7, §8, §9, §10
# [2] = HCT 15, 48 hours, read-out: ED50 (the source's name)
SMILES,IC50 (HCT-15 (human colon); [2]) [ng/mL],IC50 [1] [ng/mL],IC50 (XF 498 (human CNS)) [ng/mL],IC50 (SKMEL-2 (human melanoma)) [ng/mL],IC50 (SKOV-3 (human ovarian)) [ng/mL],"IC50 (HCT-15 (human colon); HCT-15, 48 h, read-out: ED50) [ng/mL]"
"COc1cc(OC)cc(N2CCN(C(=O)N(C)c3cc(C(C)OC)c(C)nc3OC)CC2)c1 (stereo not drawn) [Example 157, 1-{N-[2-Methoxy-5-(1-methoxyethyl)-6-methylpyridin-3-yl]-N-methylaminocarbonyl}-4-(3,5-dimethoxyphenyl)piperazine]",0.211,0.002,0.245,0.043,0.002,
"C=Cc1cc(N(C)C(=O)N2CCN(c3cc(C)cc(C)c3)CC2)c(OC)nc1C [Example 159, 1-[N-(2-Methoxy-6-methyl-5-vinylpyridin-3-yl)-N-methylaminocarbonyl]-4-(3,5-dimethylphenyl)piperazine]",170,50,210,70,100,
"COc1cc(C)c(C)cc1NC(=O)N1CCN(c2c(C)c(C)cc(C)c2C)CC1 [Example 174, 1-[(4,5-Dimethyl-2-methoxyphenyl)aminocarbonyl]-4-(2,3,5,6-tetramethylphenyl)piperazine]",330,540,490,270,560,
"COc1cc(C)c(C)cc1NC(=O)N1CCN(c2cccc(Cl)c2)CC1 [Example 177, 1-[(4,5-Dimethyl-2-methoxyphenyl)aminocarbonyl]-4-(3-chlorophenyl)piperazine]",90,520,120,170,390,
"COc1cc(C)c(C)cc1NC(=O)N1CCN(c2cccc(O)c2)CC1 [Example 179, 1-[(4,5-Dimethyl-2-methoxyphenyl)aminocarbonyl]-4-(3-hydroxylphenyl)piperazine]",630,1040,740,720,980,
"COc1cc(C)c(C)cc1NC(=O)N1CCN(c2ccccc2OC)CC1 [Example 183, 1-[(4,5-Dimethyl-2-methoxyphenyl)aminocarbonyl]-4-(2-methoxyphenyl)piperazine]",2090,420,1410,1170,2270,
"COc1cc(C)c(C)cc1NC(=S)N1CCN(c2cc(Cl)cc(Cl)c2)CC1 [Example 201, 1-[(4,5-Dimethyl-2-methoxyphenyl)aminothiocarbonyl]-4-(3,5-dichlorophenyl)piperazine]",,14,26,49,53,71

# The next lines start with results.
IC50 (HCT-15 (human colon); [2]) [ng/mL],IC50 [1] [ng/mL],IC50 (XF 498 (human CNS)) [ng/mL],IC50 (SKMEL-2 (human melanoma)) [ng/mL],IC50 (SKOV-3 (human ovarian)) [ng/mL],SMILES,"IC50 (HCT-15 (human colon); HCT-15, 48 h, read-out: ED50) [ng/mL]"
17,4,443,2,8,"COc1cc(OC)cc(N2CCN(C(=O)N(C)c3cc(C)c(C)cc3OC)CC2)c1 [Example 190, 1-[N-(4,5-Dimethyl-2-methoxyphenyl)-N-methylaminocarbonyl]-4-(3,5-dimethoxyphenyl)piperazine]",
400,90,470,60,280,"COc1cc(C)c(C)cc1N(C)C(=O)N1CCN(c2cc(C)cc(C)c2)CC1 [Example 191, 1-[N-(4,5-Dimethyl-2-methoxyphenyl)-N-methylaminocarbonyl]-4-(3,5-dimethylphenyl)piperazine]",
560,21,72,8,68,"COc1cc(C)c(C)cc1NC(=S)N1CCN(c2cc(C)cc(C)c2)CC1 [Example 198, 1-[(4,5-Dimethyl-2-methoxyphenyl)aminothiocarbonyl]-4-(3,5-dimethylphenyl)piperazine]",
440,500,1010,260,530,"COc1cc(C)c(C)cc1NC(=S)N1CCN(c2cc(F)cc(F)c2)CC1 [Example 200, 1-[(4,5-Dimethyl-2-methoxyphenyl)aminothiocarbonyl]-4-(3,5-difluorophenyl)piperazine]",
640,570,2090,480,1260,"COc1cc(C)c(C)cc1NC(=S)N1CCN(c2ccccc2F)CC1 [Example 202, 1-[(4,5-Dimethyl-2-methoxyphenyl)amminothiocarbonyl]-4-(2-fluorophenyl)piperazine]",
